# US20260016464A1, “METHOD FOR CHARACTERIZING, TYPING AND IDENTIFYING CELLS AND USE THEREOF” (Yigong Ruixin (Xiamen) Technology Co., Ltd, priority 2023, published 2026)
# Assays:
# [1] = tested on: non-small cell lung cancer cells A549; test: Cell viability reflected by cellular mechanical force (cellular mechanical force detection device); type: cell-based
# Source text: This example specifically provides application of cellular physical information acquired by the characterization system for cell/multicellular aggregate interaction described in any one of examples 10 to 12 or the cellular mechanical force detection method described in example 14 in monitoring cell viability.
# (§1) Please refer to FIG. 40, FIG. 41 and FIG. 42. FIG. 40 is a schematic diagram of the operation process of the cell viability detection method; FIG. 41 is a comparison diagram of cell viability measured by MTT method and cellular mechanical force measured by the device or system or method of the present invention after A549 cells are treated with different doses of 5FU for 24 h; FIG. 42 is a comparison diagram of cell viability measured by MTT method and cellular mechanical force measured by the device or system or method of the present invention after A549 cells are treated with different doses of 5FU for different times.
# (§2) Specifically, in this example, non-small cell lung cancer cells A549 are cultured on multiple cellular mechanical force detection devices, treated with different doses of the cell proliferation inhibitory drug 5-fluorouracil (5-FU), and cellular mechanical force at different time points is monitored by the characterization system for cell/multicellular aggregate interaction described in any one of examples 10 to 12 or the cellular mechanical force detection method described in example 14. Cell proliferation and cytotoxicity at different time points are monitored by CCK-8 kit, and cell viability measured by MTT assay is used as a control group to obtain data in FIGS. 41 and 42.
# [2] = tested on: non-small cell lung cancer cells A549; test: Cell viability measured by MTT assay (control method); type: cell-based
# Procedure: as §1, §2
# [3] = different doses and times of treatment (FIGS. 41 and 42)
compound,measurement,setting,value
"O=c1[nH]cc(F)c(=O)[nH]1 [5FU, 5-fluorouracil]",cell viability reflected by the cellular mechanical force,[1]; [3],gradually decreasing trend in a dose-dependent manner
same,reduction range of cell viability reflected by mechanical force,"[1]; different doses, 24 h, compared with control group DMSO (FIG. 41)",larger than that reflected by the traditional MTT assay
same,time at which a significant decreasing trend of cellular mechanical force can be observed,[1]; treatment dose of 0.5 μM (FIG. 42),6 h
same,time at which a significant decreasing trend of cellular mechanical force can be observed,[1]; treatment dose of 1 μM (FIG. 42),3 h
same,cell viability measured by the MTT assay,[2]; [3],gradually decreasing trend in a dose-dependent manner
same,change in cell viability measured by the MTT method,[2]; within 12 h of treatment (FIG. 42),not obvious
